From ChEMBL document CHEMBL1128987, “Benzenesulfonamide-peptide conjugates as probes for secondary binding sites near the active site of carbonic anhydrase” (Bioorg Med Chem Lett, 1996)

Key:
Carbonic anhydrase 2 [1] = target: T1, Carbonic anhydrase 2 (Homo sapiens, UniProt P00918)
Description: Kinetic constant for binding human carbonic anhydrase II

Carbonic anhydrase 2 [2] = target: T1, Carbonic anhydrase 2; assay: Dissociation constant was determined against human carbonic anhydrase II at 37 degree Celsius in experiment 1
Carbonic anhydrase 2 [3] = target: T1, Carbonic anhydrase 2; assay: Dissociation constant was determined against human carbonic anhydrase II at 37 degree Centigrade in experiment 2

## NS(=O)(=O)c1ccc(C(=O)NCC(=O)O)cc1
Carbonic anhydrase 2 [1]
  k off: 0.12 s⁻¹
Carbonic anhydrase 2 [2]
  Kd: 310 nM
Carbonic anhydrase 2 [3]
  Kd: 330 nM
